In PMC6658782, “The Novel Arylamidine T-2307 Selectively Disrupts Yeast Mitochondrial Function by Inhibiting Respiratory Chain Complexes” (Antimicrobial Agents and Chemotherapy, 2019):
Values after ≈ are worked out from the molar mass of the structure shown.

How the values were obtained:
[1] = system: isolated yeast mitochondria; test: Mitochondrial oxygen consumption (MitoXpress probe); assay type: biochemical, Saccharomyces cerevisiae
Procedure: S. cerevisiae from frozen stock (−80°C) was inoculated into yeast extract-peptone-glucose (YPD) medium (1% yeast extract, 2% peptone, and 2% glucose) and grown for 24 h at 30°C. The cultured cells were subcultured into yeast extract-peptone-galactose (YPGal) medium (1% yeast extract, 2% peptone, 2% galactose, and 0.1% glucose) and incubated overnight with continuous shaking at 30°C. When the optical density at 600 nm reached approximately 1.0, the cells were collected by centrifugation (3,000 × g at room temperature for 5 min). Intact mitochondria were isolated as per a previously described protocol ([35]) with minor modifications as follows. Yeast cells were converted to spheroplasts by incubation with Zymolyase-20T (Nacalai Tesque, Inc., Kyoto, Japan) (4 mg of Zymolyase-20T/g [wet weight] of cells) and disrupted using a Dounce homogenizer. The crude mitochondrial fraction was isolated by differential centrifugation ([35]). […]. The mitochondrial protein concentration was determined using the DC protein assay (Bio-Rad Laboratories, Inc., Hercules, CA, USA) following the manufacturer’s instructions. The mitochondrial stock solution was maintained on ice during the oxygen consumption experiment.
The mitochondrial oxygen consumption was measured using a phosphorescent oxygen-sensitive probe, MitoXpress-Xtra (Agilent Technologies, Santa Clara, CA, USA), as described previously ([16], [36]). Succinate was used as a respiratory substrate in this assay. […] A microplate reader, PHERAstar Plus (BMG Labtech GmbH, Ortenberg, Germany), was used to read. The time-resolved fluorescence protocol was set to read the plate at 1.5-min intervals for 60 min at an excitation wavelength of 337 nm, an emission wavelength of 665 nm, a delay time of 40 μs, and a gate time of 100 μs at 30°C.
[…]. […] For quantitative assessment, OCR was determined from the slope of the initial 7.5 min. OCR is expressed as micromolar of O2 per minute per milligram of protein.
The drug concentration was expressed as micromoles per milligram of protein. […]

[2] = target: respiratory chain complex II + III (Saccharomyces cerevisiae, UniProt P00163+P07143+P08067); test: Respiratory chain enzymatic activity, complexes II plus III, S. cerevisiae; assay type: biochemical
[3] = target: respiratory chain complex IV (Saccharomyces cerevisiae, UniProt P00401+P00410+P00420); test: Respiratory chain enzymatic activity, complex IV, S. cerevisiae; assay type: biochemical
[4] = target: respiratory chain complex I (Candida albicans, UniProt Q9B8D6); test: Respiratory chain enzymatic activity, complex I (rotenone-sensitive), C. albicans; assay type: biochemical; details: read-out: IC50 ± SD, Complex I
[5] = target: NADH dehydrogenase; test: NADH dehydrogenase activity, C. albicans; assay type: biochemical, Candida albicans; details: C. albicans mitochondria; involves complex I activity; read-out: IC50 against NADH dehydrogenase activity
[6] = target: T1, respiratory chain complex II + III (Candida albicans, UniProt A0A1D8PHA3+A0A1D8PJX3+P0C8L0); test: Respiratory chain enzymatic activity, complexes II plus III, C. albicans; assay type: biochemical; details: C. albicans mitochondria; read-out: IC50 ± SD, Complex II + III
T1 sequence (P0C8L0 1-387): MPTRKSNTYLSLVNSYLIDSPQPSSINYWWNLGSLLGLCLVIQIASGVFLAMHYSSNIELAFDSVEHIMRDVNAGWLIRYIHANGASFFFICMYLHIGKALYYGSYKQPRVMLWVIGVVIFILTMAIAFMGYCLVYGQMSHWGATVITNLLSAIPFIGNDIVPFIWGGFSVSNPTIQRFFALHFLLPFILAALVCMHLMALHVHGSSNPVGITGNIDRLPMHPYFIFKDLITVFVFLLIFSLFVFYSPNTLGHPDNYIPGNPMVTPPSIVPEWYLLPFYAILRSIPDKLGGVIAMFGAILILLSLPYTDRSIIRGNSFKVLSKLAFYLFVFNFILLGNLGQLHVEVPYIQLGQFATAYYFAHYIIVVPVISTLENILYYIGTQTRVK
T1 sequence (A0A1D8PHA3 43-288): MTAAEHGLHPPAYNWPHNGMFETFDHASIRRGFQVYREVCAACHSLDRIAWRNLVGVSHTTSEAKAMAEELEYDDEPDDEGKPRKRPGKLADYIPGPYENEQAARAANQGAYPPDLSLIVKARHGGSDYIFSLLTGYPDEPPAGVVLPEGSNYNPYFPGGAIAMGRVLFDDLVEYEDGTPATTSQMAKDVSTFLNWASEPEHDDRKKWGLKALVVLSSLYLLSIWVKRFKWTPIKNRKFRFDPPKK
T1 sequence (A0A1D8PJX3 30-213): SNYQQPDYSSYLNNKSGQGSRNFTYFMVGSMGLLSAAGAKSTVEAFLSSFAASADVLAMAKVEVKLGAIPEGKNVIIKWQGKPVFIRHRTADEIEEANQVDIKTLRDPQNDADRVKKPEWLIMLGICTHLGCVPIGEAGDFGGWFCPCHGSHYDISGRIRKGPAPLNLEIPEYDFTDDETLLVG

[7] = target: respiratory chain complex IV (Candida albicans, UniProt P0C8K9+Q9B1P9+Q9B8D8); test: Respiratory chain enzymatic activity, complex IV, C. albicans; assay type: biochemical; details: C. albicans mitochondria; read-out: IC50 ± SD, Complex IV
Chain of respiratory chain complex IV (Candida albicans, UniProt P0C8K9+Q9B1P9+Q9B8D8) (P0C8K9 whole entry): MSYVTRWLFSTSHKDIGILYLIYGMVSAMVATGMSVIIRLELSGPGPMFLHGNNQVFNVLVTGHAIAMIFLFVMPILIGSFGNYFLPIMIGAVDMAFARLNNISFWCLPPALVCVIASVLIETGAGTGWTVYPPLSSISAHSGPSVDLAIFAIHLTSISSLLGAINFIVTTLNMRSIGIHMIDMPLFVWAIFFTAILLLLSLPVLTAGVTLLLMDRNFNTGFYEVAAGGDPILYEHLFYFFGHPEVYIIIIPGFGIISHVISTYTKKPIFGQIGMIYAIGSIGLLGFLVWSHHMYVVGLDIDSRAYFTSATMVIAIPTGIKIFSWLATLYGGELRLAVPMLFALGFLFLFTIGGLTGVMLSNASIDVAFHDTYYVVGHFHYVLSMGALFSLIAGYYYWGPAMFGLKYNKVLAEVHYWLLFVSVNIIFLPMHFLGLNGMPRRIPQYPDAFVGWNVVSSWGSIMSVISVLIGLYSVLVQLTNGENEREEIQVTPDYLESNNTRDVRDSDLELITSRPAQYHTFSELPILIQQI
Chain of respiratory chain complex IV (Candida albicans, UniProt P0C8K9+Q9B1P9+Q9B8D8) (Q9B8D8 whole entry): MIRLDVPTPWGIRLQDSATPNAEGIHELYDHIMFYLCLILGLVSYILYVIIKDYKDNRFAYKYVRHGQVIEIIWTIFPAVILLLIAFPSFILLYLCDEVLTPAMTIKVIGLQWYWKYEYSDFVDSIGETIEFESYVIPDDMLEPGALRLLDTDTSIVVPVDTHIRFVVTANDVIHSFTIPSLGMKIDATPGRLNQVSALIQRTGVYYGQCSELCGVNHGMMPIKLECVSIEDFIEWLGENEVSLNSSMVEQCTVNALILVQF
Chain of respiratory chain complex IV (Candida albicans, UniProt P0C8K9+Q9B1P9+Q9B8D8) (Q9B1P9 whole entry): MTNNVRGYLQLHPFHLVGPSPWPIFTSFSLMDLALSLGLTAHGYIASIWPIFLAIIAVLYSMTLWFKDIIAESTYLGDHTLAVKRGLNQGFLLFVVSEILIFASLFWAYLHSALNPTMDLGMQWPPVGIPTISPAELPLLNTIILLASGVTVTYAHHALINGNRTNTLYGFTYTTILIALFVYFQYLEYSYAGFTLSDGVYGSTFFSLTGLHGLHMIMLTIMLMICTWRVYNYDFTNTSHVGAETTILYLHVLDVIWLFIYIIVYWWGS

[8] = target: respiratory chain complex II + III (Bos taurus, UniProt P00125+P00157+P13272); test: MitoCheck complex II/III activity assay, bovine heart mitochondria; assay type: biochemical
[9] = system: S. cerevisiae cells; test: Accumulation of T-2307 in S. cerevisiae cells; assay type: cell-based, Saccharomyces cerevisiae
[10] = system: S. cerevisiae; details: cited from earlier work
[11] = system: C. albicans; details: cited from earlier work
[12] = system: rat liver mitochondria; design: method as in PMID 22948882; details: cited from earlier work

Structure (SMILES): N=C(N)c1ccc(OCCCC2CCN(CCCOc3ccc(C(=N)N)cc3)CC2)cc1 [T-2307]
- effect on mitochondrial oxygen consumption rate (OCR) [1]: dose-dependent decrease
- IC50 [2]: 271 ± 37 µM
- IC50 [3]: 149 ± 23 µM
- IC50 [4]: 344 ± 32 µM
- IC50 [5]: 2000 µM
- IC50 [6]: 220 ± 55 µM
- IC50 [7]: 225 ± 23 µM
- IC50 for complexes II plus III in bovine heart mitochondria relative to yeast mitochondria [8]: > 10 fold
- IC50 ([8]; bovine heart mitochondria, read-out: IC50 ± SD, Complex II + III): > 3000 µM
- remaining activity at 3000 µM ([8]; read-out: remaining enzymatic activity of complexes II plus III): 93%
- concentration in cells relative to extracellular medium [9]: approximately 6,000 fold
- MIC reported previously [10]: 2 nM (≈ 0.875 ng/mL)
- MIC reported previously [11]: 4 nM (≈ 1.75 ng/mL)
- effect on the MMP and on respiration in rat liver mitochondria [12]: little effect
